Tested on: P12-ICHIKAWA
Test: selective drug sensitivity score (sDSS, relative to normal bone marrow) (sDSS (score)); higher = more potent and effective on the cell line relative to normal bone marrow cells
Conditions: 72 h
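Further: ALL cell lines in 384-well plates, five doses spanning 10,000-fold, each plate scaled between vehicle and 100 µmol/L benzalkonium chloride controls, sDSS an adapted area-under-curve metric.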

Compound	selective drug sensitivity score
COc1cccc2c1c(O)c(C(=O)N(C)c1ccc(C(F)(F)F)cc1)c(=O)n2C [Tasquinimod] (top concentration 10000 nM)	-0.42
Nc1nc2[nH]cnc2c(=S)[nH]1 [Thioguanine] (top concentration 10000 nM)	13.6
CC#CC(=O)N1CC[C@@H](n2c(=O)n(-c3ccc(Oc4ccccc4)cc3)c3c(N)ncnc32)C1 [Tirabrutinib] (top concentration 1000 nM)	0
CC(C)C[C@@H](C(=O)N[C@H](C(=O)OC1CCCC1)c1ccccc1)[C@H](O)C(=O)NO [Tosedostat] (top concentration 10000 nM)	-0.24
CS(=O)(=O)c1ccc(-c2cnc(N)c(C(=O)Nc3ccccc3)n2)cc1 [VE-821] (top concentration 10000 nM)	3.14
CNC(=O)c1ccccc1Nc1cc(Nc2ccc(N3CCOCC3)cc2OC)ncc1C(F)(F)F [VS-4718] (top concentration 10000 nM)	1.7
Cc1cccc(-c2[nH]c(CNc3ccccc3F)nc2-c2ccc3ncnn3c2)n1 [Vactosertib (TEW-7197)] (top concentration 2500 nM)	-0.5
O=C(/C=C\n1cnc(-c2cc(C(F)(F)F)cc(C(F)(F)F)c2)n1)NNc1ccccn1 [Verdinexor] (top concentration 1000 nM)	5.64
CC[C@@H]1C(=O)N(C)c2cnc(Nc3ccc(C(=O)N[C@H]4CC[C@H](N5CCN(CC6CC6)CC5)CC4)cc3OC)nc2N1C(C)C [Volasertib] (top concentration 1000 nM)	11.5
O=C(CCCCCCC(=O)Nc1ccccc1)NO [Vorinostat] (top concentration 10000 nM)	6.6

Tested on: RPMI-8402
Test: as above
Conditions: 72 h

Compound	selective drug sensitivity score
COc1cccc2c1c(O)c(C(=O)N(C)c1ccc(C(F)(F)F)cc1)c(=O)n2C [Tasquinimod] (top concentration 10000 nM)	-0.42
Nc1nc2[nH]cnc2c(=S)[nH]1 [Thioguanine] (top concentration 10000 nM)	14.9
CC#CC(=O)N1CC[C@@H](n2c(=O)n(-c3ccc(Oc4ccccc4)cc3)c3c(N)ncnc32)C1 [Tirabrutinib] (top concentration 1000 nM)	0
CC(C)C[C@@H](C(=O)N[C@H](C(=O)OC1CCCC1)c1ccccc1)[C@H](O)C(=O)NO [Tosedostat] (top concentration 10000 nM)	2.86
CS(=O)(=O)c1ccc(-c2cnc(N)c(C(=O)Nc3ccccc3)n2)cc1 [VE-821] (top concentration 10000 nM)	5.54
CNC(=O)c1ccccc1Nc1cc(Nc2ccc(N3CCOCC3)cc2OC)ncc1C(F)(F)F [VS-4718] (top concentration 10000 nM)	8.8
Cc1cccc(-c2[nH]c(CNc3ccccc3F)nc2-c2ccc3ncnn3c2)n1 [Vactosertib (TEW-7197)] (top concentration 2500 nM)	-0.5
O=C(/C=C\n1cnc(-c2cc(C(F)(F)F)cc(C(F)(F)F)c2)n1)NNc1ccccn1 [Verdinexor] (top concentration 1000 nM)	8.34
CC[C@@H]1C(=O)N(C)c2cnc(Nc3ccc(C(=O)N[C@H]4CC[C@H](N5CCN(CC6CC6)CC5)CC4)cc3OC)nc2N1C(C)C [Volasertib] (top concentration 1000 nM)	20.8
O=C(CCCCCCC(=O)Nc1ccccc1)NO [Vorinostat] (top concentration 10000 nM)	8.2

Tested on: COG-LL-332h
Test: as above
Conditions: 72 h

Compound	selective drug sensitivity score
COc1cccc2c1c(O)c(C(=O)N(C)c1ccc(C(F)(F)F)cc1)c(=O)n2C [Tasquinimod] (top concentration 10000 nM)	0.48
Nc1nc2[nH]cnc2c(=S)[nH]1 [Thioguanine] (top concentration 10000 nM)	14.5
CC#CC(=O)N1CC[C@@H](n2c(=O)n(-c3ccc(Oc4ccccc4)cc3)c3c(N)ncnc32)C1 [Tirabrutinib] (top concentration 1000 nM)	1.8
CC(C)C[C@@H](C(=O)N[C@H](C(=O)OC1CCCC1)c1ccccc1)[C@H](O)C(=O)NO [Tosedostat] (top concentration 10000 nM)	2.26
CS(=O)(=O)c1ccc(-c2cnc(N)c(C(=O)Nc3ccccc3)n2)cc1 [VE-821] (top concentration 10000 nM)	4.74
CNC(=O)c1ccccc1Nc1cc(Nc2ccc(N3CCOCC3)cc2OC)ncc1C(F)(F)F [VS-4718] (top concentration 10000 nM)	-0.3
Cc1cccc(-c2[nH]c(CNc3ccccc3F)nc2-c2ccc3ncnn3c2)n1 [Vactosertib (TEW-7197)] (top concentration 2500 nM)	-0.2
O=C(/C=C\n1cnc(-c2cc(C(F)(F)F)cc(C(F)(F)F)c2)n1)NNc1ccccn1 [Verdinexor] (top concentration 1000 nM)	7.74
CC[C@@H]1C(=O)N(C)c2cnc(Nc3ccc(C(=O)N[C@H]4CC[C@H](N5CCN(CC6CC6)CC5)CC4)cc3OC)nc2N1C(C)C [Volasertib] (top concentration 1000 nM)	12
O=C(CCCCCCC(=O)Nc1ccccc1)NO [Vorinostat] (top concentration 10000 nM)	3.4

Reference: the supplement of paper PMC8967900
